Data: ChEMBL document CHEMBL3421624, “Design and Synthesis of Antitumor Heck-Coupled Sclareol Analogues: Modulation of BH3 Family Members by SS-12 in Autophagy and Apoptotic Cell Death” (J Med Chem, 2015)
Activity calls are given as the source filed them. The rule behind the calls is not given here.

Key:
[1] = system: PC-3; assay: Inhibition of Akt in human PC3 cells assessed as reduction in mTOR S2448 phosphorylation at 0.1 to 0.3 uM after 24 hrs by Western blotting method; format: cell-based
[2] = system: PC-3; assay: Effect on Beclin-1 protein expression in human PC3 cells at 0.2 to 0.3 uM after 24 hrs by immunoblotting method; format: functional, cell-based
[3] = system: PC-3; assay: Induction of apoptosis in human PC3 cells assessed as caspase-3 cleavage at 300 nM after 24 hrs by Western blotting method; format: functional, cell-based
[4] = system: PC-3; assay: Induction of apoptosis in human PC3 cells at 100 to 300 nM after 24 hrs; format: functional, cell-based
[5] = system: PC-3; assay: Inhibition of Akt S473 phosphorylation in human PC3 cells at 0.1 to 0.3 uM after 24 hrs by Western blotting method; format: cell-based
[6] = system: PC-3; assay: Effect on SQSTM1/P62 protein expression in human PC3 cells at 0.2 to 0.3 uM after 24 hrs by immunoblotting method; format: functional, cell-based
[7] = Cytotoxicity against human PC3 cells after 48 hrs by MTT assay; format: functional, cell-based; conditions: PC-3, 48 h
[8] = system: A549; assay: Cytotoxicity against human A549 cells after 48 hrs by MTT assay; format: functional, cell-based; conditions: A549, 48 h
[9] = system: PC-3; assay: Induction of autophagy in human PC3 cells at 100 to 300 nM after 24 hrs by acridine orange staining based fluorescence microscopy; format: functional
[10] = system: PC-3; assay: Effect on MAP1LC3 I/II protein expression in human PC3 cells at 0.2 to 0.3 uM after 24 hrs by immunoblotting method; format: functional, cell-based
[11] = system: HeLa; assay: Cytotoxicity against human HeLa cells after 48 hrs by MTT assay; format: functional, cell-based
[12] = system: PC-3; assay: Induction of autophagy in human PC3 cells at 100 to 300 nM after 24 hrs; format: functional, cell-based
[13] = system: PC-3; assay: Induction of autophagy in human PC3 cells at 100 to 300 nM after 24 hrs by MDC staining based fluorescence microscopy; format: functional, cell-based
[14] = system: PC-3; assay: Induction of autophagy in human PC3 cells assessed as increase in punctate EGFP-LC3 pattern in autophagosomes at 300 nM after 24 hrs by fluorescence microscopy; format: functional, cell-based
[15] = system: PC-3; assay: Induction of autophagy in human PC3 cells assessed as increase LC3 intracellular localization at 100 nM after 24 hrs by immunocytochemistry; format: functional, cell-based
[16] = system: PC-3; assay: Induction of autophagy in human PC3 cells assessed as increase in punctate EGFP-LC3 pattern in autophagosomes at 100 nM after 24 hrs by fluorescence microscopy; format: functional, cell-based

Compound: C=C[C@](C)(O)CC[C@@H]1[C@@]2(C)CCCC(C)(C)[C@@H]2CC[C@@]1(C)O [SCLAREOL]
- inhibition [1]: Active
- Activity [2]: inactive
- Activity [3]: Active
- Activity [4]: inactive
- inhibition [5]: Active
- Activity [6]: inactive
- IC50 [7]: 0.105 µM
- IC50 [8]: 3.21 µM
- Activity [9]: <=5%
- Activity [10]: inactive
- IC50 [11]: 3.35 µM
- Activity [12]: inactive

Compound: CC1(C)CCC[C@]2(C)[C@@H](CC[C@@](C)(O)/C=C/c3ccc(C(=O)O)cc3)[C@](C)(O)CC[C@@H]12
- Activity [13]: Active
- IC50 [7]: 0.102 µM
- IC50 [8]: 44.3 µM
- Activity [9]: Active
- IC50 [11]: 45.4 µM

Compound: CC(C)(C)c1ccc(/C=C/[C@](C)(O)CC[C@@H]2[C@@]3(C)CCCC(C)(C)[C@@H]3CC[C@@]2(C)O)cc1
- IC50 [7]: 3.8 µM
- IC50 [8]: 45 µM
- IC50 [11]: 48.5 µM

Compound: Cc1cccc(/C=C/[C@](C)(O)CC[C@@H]2[C@@]3(C)CCCC(C)(C)[C@@H]3CC[C@@]2(C)O)c1C
- IC50 [7]: 3.5 µM
- IC50 [8]: 3.8 µM
- IC50 [11]: 3.7 µM

Compound: CC1(C)CCC[C@]2(C)[C@@H](CC[C@@](C)(O)/C=C/c3ccc(Oc4ccccc4)cc3)[C@](C)(O)CC[C@@H]12
- IC50 [7]: 0.268 µM
- IC50 [8]: 3.2 µM
- IC50 [11]: 3.48 µM

Compound: CC1(C)CCC[C@]2(C)[C@@H](CC[C@@](C)(O)/C=C/c3ccc(Cl)nc3)[C@](C)(O)CC[C@@H]12
- IC50 [7]: 0.275 µM
- IC50 [8]: 3.28 µM
- IC50 [11]: 3.68 µM

Compound: CC1(C)CCC[C@]2(C)[C@@H](CC[C@@](C)(O)/C=C/c3cncc4ccccc34)[C@](C)(O)CC[C@@H]12
- IC50 [7]: 3.9 µM
- IC50 [8]: 45.7 µM
- IC50 [11]: 46 µM

Compound: CC1(C)CCC[C@]2(C)[C@@H](CC[C@@](C)(O)/C=C/c3cccc([N+](=O)[O-])c3)[C@](C)(O)CC[C@@H]12
- Activity [13]: Active
- IC50 [7]: 0.153 µM
- IC50 [8]: 3.4 µM
- Activity [9]: Active
- IC50 [11]: 3.38 µM

Compound: COc1cccc(OC)c1/C=C/[C@](C)(O)CC[C@@H]1[C@@]2(C)CCCC(C)(C)[C@@H]2CC[C@@]1(C)O
- IC50 [7]: 4 µM
- IC50 [8]: 42 µM
- IC50 [11]: 48.2 µM

Compound: CC1(C)CCC[C@]2(C)[C@@H](CC[C@@](C)(O)/C=C/c3ccc(Br)cc3)[C@](C)(O)CC[C@@H]12
- IC50 [7]: 41.3 µM
- IC50 [8]: 43.2 µM
- IC50 [11]: 45.9 µM

Compound: COc1cccc(/C=C/[C@](C)(O)CC[C@@H]2[C@@]3(C)CCCC(C)(C)[C@@H]3CC[C@@]2(C)O)c1OC
- IC50 [7]: 2.9 µM
- IC50 [8]: 3.28 µM
- IC50 [11]: 3.88 µM

Compound: CO/C1=C\C(C)=C\[C@@H](C)[C@@H](O)[C@@H](C)C/C(C)=C/C=C/[C@H](OC)[C@@H]([C@@H](C)[C@@H](O)[C@H](C)[C@@]2(O)C[C@@H](O)[C@H](C)[C@@H](C(C)C)O2)OC1=O
- Activity [14]: inactive

Compound: Cc1ccc(C)c(/C=C/[C@](C)(O)CC[C@@H]2[C@@]3(C)CCCC(C)(C)[C@@H]3CC[C@@]2(C)O)c1
- Activity [13]: Active
- IC50 [7]: 0.176 µM
- IC50 [8]: 3.32 µM
- Activity [9]: Active
- IC50 [11]: 3.38 µM

Compound: CC1(C)CCC[C@]2(C)[C@@H](CC[C@@](C)(O)/C=C/c3c4ccccc4c(Br)c4ccccc34)[C@](C)(O)CC[C@@H]12
- IC50 [7]: 0.301 µM
- IC50 [8]: 44.9 µM
- IC50 [11]: 46 µM

Compound: Cc1cccc(C)c1/C=C/[C@](C)(O)CC[C@@H]1[C@@]2(C)CCCC(C)(C)[C@@H]2CC[C@@]1(C)O
- IC50 [7]: 0.278 µM
- IC50 [8]: 3.34 µM
- IC50 [11]: 3.46 µM

Compound: CN[C@@H]1C[C@H]2O[C@@](C)([C@@H]1OC)n1c3ccccc3c3c4c(c5c6ccccc6n2c5c31)C(=O)NC4 [STAUROSPORINE]
- IC50 [7]: 0.031 µM

Compound: CO[C@H]1C[C@@H]2CC[C@@H](C)[C@@](O)(O2)C(=O)C(=O)N2CCCC[C@H]2C(=O)O[C@H]([C@H](C)C[C@@H]2CC[C@@H](O)[C@H](OC)C2)CC(=O)[C@H](C)/C=C(\C)[C@@H](O)[C@@H](OC)C(=O)[C@H](C)C[C@H](C)/C=C/C=C/C=C/1C
- Activity [15]: inactive
- Activity [16]: inactive

Compound: CC1(C)CCC[C@]2(C)[C@@H](CC[C@@](C)(O)/C=C/c3ccccc3)[C@](C)(O)CC[C@@H]12
- Activity [13]: Active
- IC50 [7]: 0.121 µM
- IC50 [8]: 3.15 µM
- Activity [9]: Active
- IC50 [11]: 3.32 µM
